Data set [1] concerns genotype 1a-H77 subgenomic replicon cell line. Nature of the data set: microbe, parasite or virus in culture. Conditions: Hepatitis C virus, 72 h, read-out: EC50 1a. The format is cell-based, HCV.
The target in data set [2] is T1, HCV polymerase 1A (Δ21 NS5B) (Hepatitis C virus genotype 1a, UniProt P27958).
T1 construct: 20 to 50nM Δ21 NS5B
Nature of the data set: HCV Polymerase Inhibition Assay (1a). In kind it is biochemical. The method, boiled down: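 Δ21 NS5B reactions contained 20 μM CTP, 20 μM ATP, 1 μM ³H-UTP and 5 nM template RNA and ran for 2–4 h at room temperature. RNA was then spermine-precipitated, filter-captured and counted by scintillation. IC50 came from a tight-binding (Morrison) nonlinear fit of retained cpm against inhibitor concentration.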

The target in data set [3] is T2, HCV polymerase 1B (Δ21 NS5B) (Hepatitis C virus genotype 1b, UniProt P26663).
T2 construct: 20 to 50nM Δ21 NS5B
T2 sequence (P26663 2420-2989, stated change not applied): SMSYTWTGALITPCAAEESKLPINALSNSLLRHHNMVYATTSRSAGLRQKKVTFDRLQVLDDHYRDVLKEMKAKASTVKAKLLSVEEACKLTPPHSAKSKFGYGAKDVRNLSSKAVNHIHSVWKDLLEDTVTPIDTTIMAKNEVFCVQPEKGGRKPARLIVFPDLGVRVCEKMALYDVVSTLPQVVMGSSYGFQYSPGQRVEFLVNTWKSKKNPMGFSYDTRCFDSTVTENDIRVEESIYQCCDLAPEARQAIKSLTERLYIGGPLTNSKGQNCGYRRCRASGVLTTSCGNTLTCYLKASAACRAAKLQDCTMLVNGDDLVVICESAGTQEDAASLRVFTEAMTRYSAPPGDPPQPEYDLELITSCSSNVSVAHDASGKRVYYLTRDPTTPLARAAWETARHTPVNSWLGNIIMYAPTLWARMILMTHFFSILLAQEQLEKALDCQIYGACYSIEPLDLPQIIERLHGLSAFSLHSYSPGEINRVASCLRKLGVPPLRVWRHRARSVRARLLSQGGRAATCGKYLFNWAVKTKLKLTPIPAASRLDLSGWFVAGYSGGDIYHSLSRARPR
Nature of the data set: biochemical. The method, boiled down:
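Inhibitor pre-incubated 15 min at room temperature with Δ21 NS5B (strain BK or H77, 20–50 nM), 60–125 μM GTP, 2 mM MnCl2, pH 7.4. Reaction started with 20 μM CTP, 20 μM ATP, 1 μM 3H-UTP and 5 nM template RNA, run 2–4 h at room temperature. Spermine-precipitated RNA filter-captured and scintillation-counted; IC50 from tight-binding equation fit.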

The test system of data set [4] is genotype 1b-Con1 subgenomic replicon cell line. Nature of the data set: microbe, parasite or virus in culture. In kind it is cell-based, HCV. Particulars: Hepatitis C virus, 72 h, read-out: EC50 1b.

Among the data in US8501238B2, “Anti-infective agents and uses thereof” (priority 2007, dated 2013) are EC50, IC50 and melting point values, retold here.

T1 sequence (P27958 2421-2990, stated change not applied): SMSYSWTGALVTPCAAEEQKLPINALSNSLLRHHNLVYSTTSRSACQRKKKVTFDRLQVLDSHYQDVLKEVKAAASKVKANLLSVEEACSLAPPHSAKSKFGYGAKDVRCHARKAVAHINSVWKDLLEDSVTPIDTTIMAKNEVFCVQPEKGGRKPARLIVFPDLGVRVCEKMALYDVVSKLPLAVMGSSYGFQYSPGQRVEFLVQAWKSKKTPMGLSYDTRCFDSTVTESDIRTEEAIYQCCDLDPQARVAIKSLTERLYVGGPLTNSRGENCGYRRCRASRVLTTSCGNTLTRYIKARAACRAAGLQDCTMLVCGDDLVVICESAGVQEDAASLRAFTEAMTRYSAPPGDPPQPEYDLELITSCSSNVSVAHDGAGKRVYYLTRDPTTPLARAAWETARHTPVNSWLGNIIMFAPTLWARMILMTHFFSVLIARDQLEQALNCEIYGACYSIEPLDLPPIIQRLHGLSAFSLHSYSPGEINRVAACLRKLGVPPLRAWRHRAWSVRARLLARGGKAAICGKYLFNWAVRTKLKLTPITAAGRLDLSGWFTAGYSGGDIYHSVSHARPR

What is called EC50 is the concentration giving half of the maximal effect. One may read the IC50 as the concentration needed to halve the response being measured. A lower IC50 goes with inhibition by little substance. `CCC(C)(C)c1cc(-n2ccc(=O)[nH]c2=O)cc(-c2ccc3cc(NS(C)(=O)=O)ccc3c2)c1OC` [IB-L0-2.52, N-(6-(5-(2,4-dioxo-3,4-dihydropyrimidin-1(2H)-yl)-2-methoxy-3-tert-pentylphenyl)naphthalen-2-yl)methanesulfonamide]: the EC50 was 10 to 100 nM in data set [1] and below 10 nM in data set [4]. Further, the figures for the IC50 in data set [2] and in data set [3] were below 10 nM and 10 to 100 nM, respectively.

As for `COc1c(-c2ccsc2)cc(-n2ccc(=O)[nH]c2=O)cc1-c1ccc2cc(NS(C)(=O)=O)ccc2c1` [IB-L0-2.53, N-(6-(5-(2,4-dioxo-3,4-dihydropyrimidin-1(2H)-yl)-2-methoxy-3-(thiophen-3-yl)phenyl)naphthalen-2-yl)methanesulfonamide], the EC50 in data set [1] and in data set [4] was 10 to 100 nM throughout. Besides, the half-maximal inhibitory concentration (IC50) in data set [2] was below 10 nM; in data set [3], 10 to 100 nM.

`COc1c(-c2ccc3c(c2)/C(=N/NS(C)(=O)=O)CC3)cc(-n2ccc(=O)[nH]c2=O)cc1-c1ccco1` [IB-L0-2.55, (E)-N′-(6-(5-(2,4-dioxo-3,4-dihydropyrimidin-1(2H)-yl)-3-(furan-2-yl)-2-methoxyphenyl)-2,3-dihydro-1H-inden-1-ylidene)methanesulfonohydrazide]: the EC50 in data set [1] is 10 to 100 nM; in data set [4], below 10 nM. For the same molecule, the 50% inhibitory concentration (IC50) is below 10 nM in data set [2] and 10 to 100 nM in data set [3].

In the case of `COc1c(-c2ccc3cc(NS(C)(=O)=O)ccc3c2)cc(-n2ccc(=O)[nH]c2=O)cc1C(F)(F)F` [IB-L0-2.56, N-(6-(5-(2,4-dioxo-3,4-dihydropyrimidin-1(2H)-yl)-2-methoxy-3-(trifluoromethyl)phenyl)naphthalen-2-yl)methanesulfonamide], the figures for the EC50 in data set [1] and in data set [4] were 100 to 1000 nM and below 10 nM, respectively. Besides, the 50% inhibitory concentration (IC50) in data set [2] is below 10 nM; in data set [3] it was 10 to 100 nM.

Turning to `COc1c(I)cc(-n2ccc(=O)[nH]c2=O)cc1-c1ccc2cc(NS(C)(=O)=O)ccc2c1` [IB-L0-2.57, N-(6-(5-(2,4-dioxo-3,4-dihydropyrimidin-1(2H)-yl)-3-iodo-2-methoxyphenyl)naphthalen-2-yl)methanesulfonamide], the EC50 in data set [1] was 100 to 1000 nM; in data set [4] it was 10 to 100 nM. Also, the 50% inhibitory concentration (IC50) in data set [2] was below 10 nM; in data set [3], 10 to 100 nM.

Consider `COc1c(-c2ccc3cc(NS(C)(=O)=O)ccc3c2)cc(-n2ccc(=O)[nH]c2=O)cc1-c1ccco1` [IB-L0-2.59, N-(6-(5-(2,4-dioxo-3,4-dihydropyrimidin-1(2H)-yl)-3-(furan-2-yl)-2-methoxyphenyl)naphthalen-2-yl)methanesulfonamide], for which the EC50 in data set [1] was 100 to 1000 nM; in data set [4], 10 to 100 nM. For the same molecule, the IC50 in data set [2] was below 10 nM; in data set [3], 10 to 100 nM.

Regarding `COc1c(-c2ccc3cc(NS(C)(=O)=O)ccc3c2)cc(-n2ccc(=O)[nH]c2=O)cc1-c1cccs1` [IB-L0-2.61, N-(6-(5-(2,4-dioxo-3,4-dihydropyrimidin-1(2H)-yl)-2-methoxy-3-(thiophen-2-yl)phenyl)naphthalen-2-yl)methanesulfonamide], the EC50 in data set [1] is 100 to 1000 nM; in data set [4] it was 10 to 100 nM. Besides, the IC50 in data set [2] is below 10 nM; in data set [3] it was 10 to 100 nM.

Consider `COc1c(-c2ccoc2)cc(-n2ccc(=O)[nH]c2=O)cc1-c1ccc2cc(NS(C)(=O)=O)ccc2c1` [IB-L0-2.64, N-(6-(5-(2,4-dioxo-3,4-dihydropyrimidin-1(2H)-yl)-3-(furan-3-yl)-2-methoxyphenyl)naphthalen-2-yl)methanesulfonamide], for which the EC50 in data set [1] was 100 to 1000 nM; in data set [4] it was below 10 nM. Also, the IC50 in data set [2] and in data set [3] was 10 to 100 nM throughout.

Take `COCC(C)(C)c1cc(-n2ccc(=O)[nH]c2=O)cc(-c2ccc3cc(NS(C)(=O)=O)ccc3c2)c1OC` [IB-L0-2.66, N-(6-(5-(2,4-dioxo-3,4-dihydropyrimidin-1(2H)-yl)-2-methoxy-3-(1-methoxy-2-methylpropan-2-yl)phenyl)naphthalen-2-yl)methanesulfonamide]: the concentration giving a half-maximal response (EC50) lay within 100 to 1000 nM in data set [1] and 10 to 100 nM in data set [4]. Further, the IC50 in data set [2] and in data set [3] was 10 to 100 nM throughout.

On to `COc1c(-c2ccc3cc(NS(C)(=O)=O)ccc3c2)cc(-n2ccc(=O)[nH]c2=O)cc1S(C)(=O)=O` [IB-L0-2.68, N-(6-(5-(2,4-dioxo-3,4-dihydropyrimidin-1(2H)-yl)-2-methoxy-3-(methylsulfonyl)phenyl)naphthalen-2-yl)methanesulfonamide], for which the EC50 in data set [1] is above 1000 nM; in data set [4], 100 to 1000 nM. Besides, the IC50 in data set [2] and in data set [3] was 10 to 100 nM throughout.

`COc1c(Br)cc(-n2ccc(=O)[nH]c2=O)cc1-c1ccc2cc(NS(C)(=O)=O)ccc2c1` [IB-L0-2.69, N-(6-(3-bromo-5-(2,4-dioxo-3,4-dihydropyrimidin-1(2H)-yl)-2-methoxyphenyl)naphthalen-2-yl)methanesulfonamide]: the EC50 in data set [1] lay within 100 to 1000 nM; in data set [4], 10 to 100 nM. For the same molecule, the 50% inhibitory concentration (IC50) in data set [2] and in data set [3] was 10 to 100 nM in each case.

Consider `COC(=O)C(C)(C)c1cc(-n2ccc(=O)[nH]c2=O)cc(-c2ccc3cc(NS(C)(=O)=O)ccc3c2)c1OC` [IB-L0-2.70, methyl 2-(5-(2,4-dioxo-3,4-dihydropyrimidin-1(2H)-yl)-2-methoxy-3-(6-(methylsulfonamido)naphthalen-2-yl)phenyl)-2-methylpropanoate], for which the EC50 in data set [1] was above 1000 nM; in data set [4], 100 to 1000 nM. Besides, the IC50 lay in the range of 10 to 100 nM in data set [2] and 100 to 1000 nM in data set [3].

Turning to `COc1c(-c2ccccc2)cc(-n2ccc(=O)[nH]c2=O)cc1-c1ccc2cc(NS(C)(=O)=O)ccc2c1` [IB-L0-2.71, N-(6-(5-(2,4-dioxo-3,4-dihydropyrimidin-1(2H)-yl)-2-methoxy-biphenyl-3-yl)naphthalen-2-yl)methanesulfonamide], the half-maximal effective concentration (EC50) lay in the range of 100 to 1000 nM in data set [1] and 10 to 100 nM in data set [4]. For the same molecule, the IC50 in data set [2] and in data set [3] was 100 to 1000 nM in each case.

For `COC(=O)c1cc(-n2ccc(=O)[nH]c2=O)cc(-c2ccc3cc(NS(C)(=O)=O)ccc3c2)c1OC` [IB-L0-2.72, methyl 5-(2,4-dioxo-3,4-dihydropyrimidin-1(2H)-yl)-2-methoxy-3-(6-(methylsulfonamido)naphthalen-2-yl)benzoate], the values for the EC50 in data set [1] and in data set [4] were above 1000 nM and 100 to 1000 nM, respectively. Also, the IC50 in data set [2] and in data set [3] was 100 to 1000 nM in each case.

For the molecule `COc1c(-c2ccc3cc(NS(C)(=O)=O)ccc3c2)cc(-n2ccc(=O)[nH]c2=O)cc1-c1ccc(C)s1` [IB-L0-2.73, N-(6-(5-(2,4-dioxo-3,4-dihydropyrimidin-1(2H)-yl)-2-methoxy-3-(5-methylthiophen-2-yl)phenyl)naphthalen-2-yl)methanesulfonamide], the EC50 in data set [1] and in data set [4] was 100 to 1000 nM in each case. The IC50 in data set [2] and in data set [3] was 100 to 1000 nM in each case.

Consider `COc1c(-c2cccc(Cl)c2)cc(-n2ccc(=O)[nH]c2=O)cc1-c1ccc2cc(NS(C)(=O)=O)ccc2c1` [IB-L0-2.74, N-(6-(3′-chloro-5-(2,4-dioxo-3,4-dihydropyrimidin-1(2H)-yl)-2-methoxybiphenyl-3-yl)naphthalen-2-yl)methanesulfonamide], for which the values for the EC50 in data set [1] and in data set [4] were above 1000 nM and 100 to 1000 nM, respectively. In addition, the IC50 in data set [2] and in data set [3] was 100 to 1000 nM each time.

With `COc1c(NS(C)(=O)=O)cc(-n2ccc(=O)[nH]c2=O)cc1-c1ccc2cc(NS(C)(=O)=O)ccc2c1` [IB-L0-2.75, N-(5-(2,4-dioxo-3,4-dihydropyrimidin-1(2H)-yl)-2-methoxy-3-(6-(methylsulfonamido)naphthalen-2-yl)phenyl)methanesulfonamide], the EC50 in data set [1] and in data set [4] was above 1000 nM throughout. The half-maximal inhibitory concentration (IC50) is 100 to 1000 nM in data set [2] and above 1000 nM in data set [3].

What is called melting point is the temperature, or range, at which the solid turns liquid. Molecule `COc1c(-c2ccc3cc(NS(C)(=O)=O)ccc3c2)cc(-n2ccc(=O)[nH]c2=O)cc1C(C)(C)C(=O)O` [IB-L0-2.77, 2-(5-(2,4-dioxo-3,4-dihydropyrimidin-1(2H)-yl)-2-methoxy-3-(6-(methylsulfonamido)naphthalen-2-yl)phenyl)-2-methylpropanoic acid] displayed a melting point above 300 °C. Further, in data set [2], the IC50 is above 1000 nM. The molecule further displayed an IC50 in data set [3] above 1000 nM.

In turn, `COc1c(C#C[Si](C)(C)C)cc(-n2ccc(=O)[nH]c2=O)cc1-c1ccc2cc(NS(C)(=O)=O)ccc2c1` [IB-L0-2.78, N-(6-(5-(2,4-dioxo-3,4-dihydropyrimidin-1(2H)-yl)-2-methoxy-3-((trimethylsilyl)ethynyl)phenyl)naphthalen-2-yl)methanesulfonamide] came in with a melting point of 175 to 178 °C. Moreover, in data set [2], the IC50 was above 1000 nM. In data set [3], this molecule had an IC50 above 1000 nM.

For the molecule `COc1c(N2Cc3ccc(NS(C)(=O)=O)cc3C2)cc(-n2ccc(=O)[nH]c2=O)cc1C(C)(C)C` [IB-L0-2.79, N-(2-(3-tert-butyl-5-(2,4-dioxo-3,4-dihydropyrimidin-1(2H)-yl)-2-methoxyphenyl)isoindolin-5-yl)methanesulfonamide], the EC50 in data set [1] and in data set [4] was 100 to 1000 nM throughout. Further, the concentration for half-maximal inhibition (IC50) in data set [2] and in data set [3] was 10 to 100 nM in each case.
